Measured values from the NIST ThermoML archive (doi:10.1016/j.jct.2010.06.009).

Assay: activity coefficient (dimensionless); of the first substance listed, at infinite dilution; xn = mol fraction of the nth substance listed
Conditions: 101 kPa, Liquid, Chromatography, x1 = 0

## CC1CCCCC1 [methylcyclohexane] + CCCCC[n+]1ccccc1.O=S(=O)([N-]S(=O)(=O)C(F)(F)F)C(F)(F)F
303.1 K
  activity coefficient: 10.2
312.7 K
  activity coefficient: 9.39
323.4 K
  activity coefficient: 8.48
333.3 K
  activity coefficient: 7.64
343.3 K
  activity coefficient: 6.84
353.3 K
  activity coefficient: 6.08

## CC1CCCCC1 [methylcyclohexane] + CCCC[n+]1ccccc1.O=S(=O)([N-]S(=O)(=O)C(F)(F)F)C(F)(F)F
302.8 K
  activity coefficient: 14.1
312.4 K
  activity coefficient: 12.7
323.2 K
  activity coefficient: 11.6
333.1 K
  activity coefficient: 10.1
343.3 K
  activity coefficient: 8.44
353.4 K
  activity coefficient: 7.2

## CC1CCCCC1 [methylcyclohexane] + CC[n+]1ccccc1.O=S(=O)([N-]S(=O)(=O)C(F)(F)F)C(F)(F)F
302.8 K
  activity coefficient: 17.8
313.3 K
  activity coefficient: 15
323.1 K
  activity coefficient: 12.8
333 K
  activity coefficient: 10.8
342.9 K
  activity coefficient: 9.01
353 K
  activity coefficient: 7.49

## CCCCCCCCC [nonane] + CCCCC[n+]1ccccc1.O=S(=O)([N-]S(=O)(=O)C(F)(F)F)C(F)(F)F
303.2 K
  activity coefficient: 36
312.7 K
  activity coefficient: 33.3
323.4 K
  activity coefficient: 30.2
333.3 K
  activity coefficient: 27.3
343.3 K
  activity coefficient: 24.2
353.3 K
  activity coefficient: 21.4

## CCCCCCCCC [nonane] + CCCC[n+]1ccccc1.O=S(=O)([N-]S(=O)(=O)C(F)(F)F)C(F)(F)F
303.1 K
  activity coefficient: 52.3
312.6 K
  activity coefficient: 50
323.3 K
  activity coefficient: 45.6
333.3 K
  activity coefficient: 38.6
343.3 K
  activity coefficient: 33.3
353.4 K
  activity coefficient: 28.1

## CCCCCCCCC [nonane] + CC[n+]1ccccc1.O=S(=O)([N-]S(=O)(=O)C(F)(F)F)C(F)(F)F
302.8 K
  activity coefficient: 86.1
313.3 K
  activity coefficient: 74.3
323.1 K
  activity coefficient: 63.4
333 K
  activity coefficient: 51.7
342.9 K
  activity coefficient: 42.2
353 K
  activity coefficient: 33.8

## C=CCCCCCC [oct-1-ene] + CCCCC[n+]1ccccc1.O=S(=O)([N-]S(=O)(=O)C(F)(F)F)C(F)(F)F
303 K
  activity coefficient: 14.2
312.6 K
  activity coefficient: 13.2
322.6 K
  activity coefficient: 12.2
333.4 K
  activity coefficient: 11
343.4 K
  activity coefficient: 9.95
353.4 K
  activity coefficient: 9.08

## C=CCCCCCC [oct-1-ene] + CCCC[n+]1ccccc1.O=S(=O)([N-]S(=O)(=O)C(F)(F)F)C(F)(F)F
302.5 K
  activity coefficient: 22.3
313 K
  activity coefficient: 19.7
323.2 K
  activity coefficient: 18.4
332.8 K
  activity coefficient: 15.7
343 K
  activity coefficient: 13.6
352.9 K
  activity coefficient: 11.9

## C=CCCCCCC [oct-1-ene] + CC[n+]1ccccc1.O=S(=O)([N-]S(=O)(=O)C(F)(F)F)C(F)(F)F
302.6 K
  activity coefficient: 36.6
313.2 K
  activity coefficient: 31.5
323.2 K
  activity coefficient: 27.2
332.8 K
  activity coefficient: 23.7
342.9 K
  activity coefficient: 19.8
353 K
  activity coefficient: 16.7

## CCCCCCCC [octane] + CCCCC[n+]1ccccc1.O=S(=O)([N-]S(=O)(=O)C(F)(F)F)C(F)(F)F
303.2 K
  activity coefficient: 25
312.7 K
  activity coefficient: 22.8
323.4 K
  activity coefficient: 20.3
333.3 K
  activity coefficient: 18
343.3 K
  activity coefficient: 15.7
353.3 K
  activity coefficient: 13.7

## CCCCCCCC [octane] + CCCC[n+]1ccccc1.O=S(=O)([N-]S(=O)(=O)C(F)(F)F)C(F)(F)F
302.7 K
  activity coefficient: 35.4
312.5 K
  activity coefficient: 32.2
323.2 K
  activity coefficient: 29
333.3 K
  activity coefficient: 23.9
343.3 K
  activity coefficient: 20.4
353.4 K
  activity coefficient: 16.8

## CCCCCCCC [octane] + CC[n+]1ccccc1.O=S(=O)([N-]S(=O)(=O)C(F)(F)F)C(F)(F)F
302.8 K
  activity coefficient: 52.9
313.3 K
  activity coefficient: 43.5
323.1 K
  activity coefficient: 36
333 K
  activity coefficient: 29.1
342.9 K
  activity coefficient: 23.4
353 K
  activity coefficient: 18.5

## CCCCC [pentane] + CCCCC[n+]1ccccc1.O=S(=O)([N-]S(=O)(=O)C(F)(F)F)C(F)(F)F
303.3 K
  activity coefficient: 5.03
312.7 K
  activity coefficient: 4.17
323.4 K
  activity coefficient: 3.42
333.3 K
  activity coefficient: 2.89
343.3 K
  activity coefficient: 2.41
353.3 K
  activity coefficient: 2.07

## CCCCC [pentane] + CCCC[n+]1ccccc1.O=S(=O)([N-]S(=O)(=O)C(F)(F)F)C(F)(F)F
302.8 K
  activity coefficient: 5.66
312.4 K
  activity coefficient: 4.83
323.2 K
  activity coefficient: 3.92
333 K
  activity coefficient: 3.44
343.4 K
  activity coefficient: 2.66
353.4 K
  activity coefficient: 2.24

## CCCCC [pentane] + CC[n+]1ccccc1.O=S(=O)([N-]S(=O)(=O)C(F)(F)F)C(F)(F)F
302.7 K
  activity coefficient: 5.79
313.3 K
  activity coefficient: 4.5
323 K
  activity coefficient: 3.59
333 K
  activity coefficient: 2.92
342.9 K
  activity coefficient: 2.36
352.9 K
  activity coefficient: 1.95

## CCCO [propan-1-ol] + CCCCC[n+]1ccccc1.O=S(=O)([N-]S(=O)(=O)C(F)(F)F)C(F)(F)F
302.8 K
  activity coefficient: 2.53
313.6 K
  activity coefficient: 2.23
323.4 K
  activity coefficient: 2.02
333.3 K
  activity coefficient: 1.84
343.3 K
  activity coefficient: 1.65
353.3 K
  activity coefficient: 1.49

## CCCO [propan-1-ol] + CCCC[n+]1ccccc1.O=S(=O)([N-]S(=O)(=O)C(F)(F)F)C(F)(F)F
303.4 K
  activity coefficient: 3.31
313.3 K
  activity coefficient: 2.82
323.2 K
  activity coefficient: 2.52
333.1 K
  activity coefficient: 2.25
343.1 K
  activity coefficient: 2.03
353 K
  activity coefficient: 1.84

## CCCO [propan-1-ol] + CC[n+]1ccccc1.O=S(=O)([N-]S(=O)(=O)C(F)(F)F)C(F)(F)F
302.5 K
  activity coefficient: 3.56
313.1 K
  activity coefficient: 3.18
323 K
  activity coefficient: 2.85
332.9 K
  activity coefficient: 2.57
342.9 K
  activity coefficient: 2.29
353 K
  activity coefficient: 2.06

## Cc1ccccc1 [toluene] + CCCCC[n+]1ccccc1.O=S(=O)([N-]S(=O)(=O)C(F)(F)F)C(F)(F)F
303.1 K
  activity coefficient: 1.28
312.8 K
  activity coefficient: 1.3
323.3 K
  activity coefficient: 1.33
333.3 K
  activity coefficient: 1.34
343.3 K
  activity coefficient: 1.36
353.5 K
  activity coefficient: 1.36

## Cc1ccccc1 [toluene] + CCCC[n+]1ccccc1.O=S(=O)([N-]S(=O)(=O)C(F)(F)F)C(F)(F)F
302.8 K
  activity coefficient: 1.8
312.6 K
  activity coefficient: 1.82
323.3 K
  activity coefficient: 1.83
333.2 K
  activity coefficient: 1.83
343.2 K
  activity coefficient: 1.85
353.3 K
  activity coefficient: 1.86

## Cc1ccccc1 [toluene] + CC[n+]1ccccc1.O=S(=O)([N-]S(=O)(=O)C(F)(F)F)C(F)(F)F
303.6 K
  activity coefficient: 2.08
313.1 K
  activity coefficient: 2.09
323.2 K
  activity coefficient: 2.1
333.2 K
  activity coefficient: 2.11
343 K
  activity coefficient: 2.12
353.3 K
  activity coefficient: 2.13
